Assay: Inhibition of NHE1 in human platelet rich plasma assessed as reduction of propionate medium induced platelet swelling measured every 6 secs for 5 mins

Row | SMILES | EC50 [nM]
1 | N=C(N)NC(=O)c1ccc(C2CCN(C(=O)c3ccc(F)cc3)CC2)c(C(F)(F)F)c1 | 184
2 | N=C(N)NC(=O)c1ccc(C2CCN(C(=O)c3ccc(S(N)(=O)=O)cc3)CC2)c(C(F)(F)F)c1 | 23
3 | N=C(N)NC(=O)c1ccc(C2CCN(C(=O)c3ccc(=O)[nH]c3)CC2)c(C(F)(F)F)c1 | 25
4 | N=C(N)NC(=O)c1ccc(C2CCN(C(=O)c3ccc(C(N)=O)cc3)CC2)c(C(F)(F)F)c1 | 36
5 | CS(=O)(=O)c1cccc(C(=O)N2CCC(c3ccc(C(=O)NC(=N)N)cc3C(F)(F)F)CC2)c1 | 50
6 | CS(=O)(=O)c1ccc(C(=O)N2CCC(c3ccc(C(=O)NC(=N)N)cc3C(F)(F)F)CC2)cc1 | 93
7 | N#Cc1ccccc1C(=O)N1CCC(c2ccc(C(=O)NC(=N)N)cc2C(F)(F)F)CC1 | 200
8 | N#Cc1cccc(C(=O)N2CCC(c3ccc(C(=O)NC(=N)N)cc3C(F)(F)F)CC2)c1 | 111
9 | N#Cc1ccc(C(=O)N2CCC(c3ccc(C(=O)NC(=N)N)cc3C(F)(F)F)CC2)cc1 | 152
10 | CS(=O)(=O)c1ccccc1C(=O)N1CCC(c2ccc(C(=O)NC(=N)N)cc2C(F)(F)F)CC1 | 269
11 | N=C(N)NC(=O)c1ccc(C2CCN(C(=O)c3ccc(O)cc3)CC2)c(C(F)(F)F)c1 | 138
12 | N=C(N)NC(=O)c1ccc(C2CCN(C(=O)c3ccc(-n4ccnc4)cc3)CC2)c(C(F)(F)F)c1 | 169
13 | N=C(N)NC(=O)c1ccc(C2CCN(C(=O)c3cccc(-c4cnco4)c3)CC2)c(C(F)(F)F)c1 | 353
14 | N=C(N)NC(=O)c1ccc(C2CCN(C(=O)c3ccc(-c4cnco4)cc3)CC2)c(C(F)(F)F)c1 | 368
15 | N=C(N)NC(=O)c1ccc(C2CCN(C(=O)c3cccc(Cl)c3)CC2)c(C(F)(F)F)c1 | 989
16 | N=C(N)NC(=O)c1ccc(C2CCN(C(=O)c3ccc(C(F)(F)F)cc3)CC2)c(C(F)(F)F)c1 | 539

Row | SMILES | EC50 [nM]
17 | N=C(N)NC(=O)c1ccc(N2CCC(NC(=O)c3ccc[nH]3)CC2)c(C(F)(F)F)c1 | 950
18 | N=C(N)NC(=O)c1ccc(N2CCCC(NC(=O)c3ccc[nH]3)C2)c(C(F)(F)F)c1 (centres undefined) | 3480
19 | N=C(N)NC(=O)c1ccc(N2CCC(NC(=O)c3ccc[nH]3)C2)c(C(F)(F)F)c1 (centres undefined) | 1590
20 | CC(=O)N1CCC(c2cc(C)c(C(=O)NC(=N)N)cc2C(F)(F)F)CC1 | 28
21 | CC(=O)N1CCC(c2cc(C)c(C(=O)NC(=N)N)cc2S(C)(=O)=O)CC1 | 56
22 | CCC(=O)N1CCC(c2cc(C)c(C(=O)NC(=N)N)cc2S(C)(=O)=O)CC1 | 88
23 | CC(=O)N1CCC(c2ccc(C(=O)NC(=N)N)cc2S(C)(=O)=O)CC1 | 189
24 | CCC(=O)N1CCC(c2ccc(C(=O)NC(=N)N)cc2S(C)(=O)=O)CC1 | 266
25 | COc1cc(C2CCN(C(C)=O)CC2)c(C(F)(F)F)cc1C(=O)NC(=N)N | 432
26 | CN(C)S(=O)(=O)c1ccc(C(=O)N2CCC(c3ccc(C(=O)NC(=N)N)cc3C(F)(F)F)CC2)cc1 | 241
27 | CNS(=O)(=O)c1ccc(C(=O)N2CCC(c3ccc(C(=O)NC(=N)N)cc3C(F)(F)F)CC2)cc1 | 88
28 | CN(C)C(=O)c1ccc(C(=O)N2CCC(c3ccc(C(=O)NC(=N)N)cc3C(F)(F)F)CC2)cc1 | 77
29 | CNC(=O)c1ccc(C(=O)N2CCC(c3ccc(C(=O)NC(=N)N)cc3C(F)(F)F)CC2)cc1 | 214
30 | COc1ccc(C(=O)N2CCC(c3ccc(C(=O)NC(=N)N)cc3C(F)(F)F)CC2)cc1 | 498
31 | N=C(N)NC(=O)c1ccc(N2CCN(C(=O)c3ccc[nH]3)CC2)c(C(F)(F)F)c1 [SABIPORIDE] | 172

Continued, values first:

Row | EC50 [nM] | SMILES
32 | 109 | N=C(N)NC(=O)c1ccc(C2CCN(C(=O)c3ccccc3)CC2)c(C(F)(F)F)c1
33 | 62 | Cn1cncc1C(=O)N1CCC(c2ccc(C(=O)NC(=N)N)cc2C(F)(F)F)CC1
34 | 111 | Cn1ccnc1C(=O)N1CCC(c2ccc(C(=O)NC(=N)N)cc2C(F)(F)F)CC1
35 | 79 | N=C(N)NC(=O)c1ccc(C2CCN(C(=O)c3ccccn3)CC2)c(C(F)(F)F)c1
36 | 32 | N=C(N)NC(=O)c1ccc(C2CCN(C(=O)c3cccnc3)CC2)c(C(F)(F)F)c1
37 | 70 | N=C(N)NC(=O)c1ccc(C2CCN(C(=O)c3ccncc3)CC2)c(C(F)(F)F)c1
38 | 115 | Cc1cc(C(=O)N2CCC(c3ccc(C(=O)NC(=N)N)cc3C(F)(F)F)CC2)nn1C
39 | 495 | N=C(N)NC(=O)c1ccc(C2CCN(C(=O)c3ccccc3Cl)CC2)c(C(F)(F)F)c1
40 | 1130 | N=C(N)NC(=O)c1ccc(C2CCN(C(=O)c3ccc(Cl)cc3)CC2)c(C(F)(F)F)c1
41 | 241 | N=C(N)NC(=O)c1ccc(C2CCN(C(=O)c3ccc[nH]3)CC2)c(C(F)(F)F)c1
42 | 31 | CCC(=O)N1CCC(c2ccc(C(=O)NC(=N)N)cc2C(F)(F)F)CC1
43 | 48 | COCC(=O)N1CCC(c2ccc(C(=O)NC(=N)N)cc2C(F)(F)F)CC1
44 | 50 | N=C(N)NC(=O)c1ccc(C2CCN(C(=O)C3CC3)CC2)c(C(F)(F)F)c1
45 | 79 | CC(C)C(=O)N1CCC(c2ccc(C(=O)NC(=N)N)cc2C(F)(F)F)CC1
46 | 127 | CC(C)(C)C(=O)N1CCC(c2ccc(C(=O)NC(=N)N)cc2C(F)(F)F)CC1
47 | 201 | CCCC(=O)N1CCC(c2ccc(C(=O)NC(=N)N)cc2C(F)(F)F)CC1
48 | 221 | CC(C)CC(=O)N1CCC(c2ccc(C(=O)NC(=N)N)cc2C(F)(F)F)CC1
49 | 416 | N=C(N)NC(=O)c1ccc(C2CCN(C(=O)C3CCCC3)CC2)c(C(F)(F)F)c1

Source: BindingDB's records for doi:10.1021/jm300601d (Boehringer Ingelheim Pharmaceuticals, 2012)
